How the values were obtained:
Type in all cases: cell-based
[1] = test system: H23 cells; test: Cell viability assay (CELLTITER-GLO), H23 cells; conditions: Table 4; 3 days
Summary of the method: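 H23 cells in RPMI 1640 with 10% FBS, 4,000 cells/well, exposed to compound or DMSO for 3 days at 37° C, 5% CO2. Viability read by CellTiter-Glo luminescence after 10 min. IC50 reported in potency bins.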

[2] = test system: MOLM-13 cells; test: Cell viability assay (CELLTITER-GLO), MOLM-13 cells; conditions: Table 2, compound at 10 μM, 3 days; for viability at 10 µM: Homo sapiens, MOLM-13, 72 h, read-out: Effect on MOLM-13 cell viability (% DMSO)
Summary of the method: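 MV-4-11 and MOLM-13 cells in RPMI 1640/10% FBS were seeded at 4,000 cells/well and exposed to compound (10 μM or 1 μM) or DMSO for 3 days at 37 °C, 5% CO2. CellTiter-Glo luminescence gave viability as % DMSO, binned into ranges A (<10%) through D (≥50%).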

[3] = test system: H358 cells; test: Cell viability assay (CELLTITER-GLO), H358 cells; conditions: Table 4; 3 days
Summary of the method: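 H358 cells (RPMI 1640, 10% FBS), 4,000 per well, exposed to compound for 3 days at 37 °C, 5% CO2; viability by CellTiter-Glo luminescence. Single-dose viability as % DMSO at 10 or 1 μM, binned A (<10%) to D (≥50%); IC50 binned A (≤1 μM) to D (>10 μM).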

SMILES	Inhibition of H358 cells, IC50 (class) [3]	Inhibition of H23 cells, IC50 (class) [1]	viability at 10 µM [2]	Effect on MOLM-13 cell viability (% DMSO) [2]
C=CC(=O)N1CCN(c2ncnc3c(F)c(-c4c(F)cccc4OCCCCCCCCCCC(=O)N[C@H](C(=O)N4C[C@H](O)C[C@H]4C(=O)NCc4ccc(-c5scnc5C)cc4)C(C)(C)C)c(Cl)cc23)CC1 [Compound 76, (2S,4R)-1-((2S)-2-(11-(2-(4-(4-Acryloylpiperazin-1-yl)-6-chloro-8-fluoroquinazolin-7-yl)-3-fluorophenoxy)undecanamido)-3,3-dimethylbutanoyl)-4-hydroxy-N-(4-(4-methylthiazol-5-yl)benzyl)pyrrolidine-2-carboxamide]	B′	B′	< 10%	–
NC(=O)N1CCN(c2ncnc3c(F)c(-c4c(F)cccc4OCCCCCCCN4CCC(c5cc(F)cc6c5CN(C5CCC(=O)NC5=O)C6=O)CC4)c(Cl)cc23)CC1 (stereo not drawn) [Compound 83, 4-(6-Chloro-7-(2-((7-(4-(2-(2,6-dioxopiperidin-3-yl)-6-fluoro-1-oxoisoindolin-4-yl)piperidin-1-yl)heptyl)oxy)-6-fluorophenyl)-8-fluoroquinazolin-4-yl)piperazine-1-carboxamide]	B′	B′	< 10%	–
CCC(=O)N1CCN(c2ncnc3c(Cl)c(-c4c(F)cccc4OCCCCCCCCN4CCC(c5cc(F)cc6c5CN(C5CCC(=O)NC5=O)C6=O)CC4)c(F)cc23)CC1 (stereo not drawn) [Compound 20, 3-(4-(1-(8-(2-(8-Chloro-6-fluoro-4-(4-propionylpiperazin-1-yl)quinazolin-7-yl)-3-fluorophenoxy)octyl)piperidin-4-yl)-6-fluoro-1-oxoisoindolin-2-yl)piperidine-2,6-dione]	B′	B′	< 10%	–
C=C(F)C(=O)N1CCN(c2ncnc3c(F)c(-c4c(F)cccc4OCCCCCCCN4CCC(c5cc(F)cc6c5CN(C5CCC(=O)NC5=O)C6=O)CC4)c(Cl)cc23)CC1 (stereo not drawn) [Compound 82, 3-(4-(1-(7-(2-(6-Chloro-8-fluoro-4-(4-(2-fluoroacryloyl)piperazin-1-yl)quinazolin-7-yl)-3-fluorophenoxy)heptyl)piperidin-4-yl)-6-fluoro-1-oxoisoindolin-2-yl)piperidine-2,6-dione]	B′	B′	< 10%	–
C=CC(=O)N1CCN(c2ncnc3c(F)c(-c4c(F)cccc4OCCOCCOCCOCCNc4cccc5c4C(=O)N(C4CCC(=O)NC4=O)C5=O)c(Cl)cc23)CC1 (stereo not drawn) [Compound 23, 4-((2-(2-(2-(2-(2-(4-(4-Acryloylpiperazin-1-yl)-6-chloro-8-fluoroquinazolin-7-yl)-3-fluorophenoxy)ethoxy)ethoxy)ethoxy)ethyl)amino)-2-(2,6-dioxopiperidin-3-yl)isoindoline-1,3-dione]	B′	B′	< 10%	–
CCC(=O)N1CCN(c2ncnc3c(F)c(-c4c(F)cccc4OCCCCCCCN4CCC(c5cc6c(cc5F)C(=O)N(C5CCC(=O)NC5=O)C6)CC4)c(Cl)cc23)CC1 (stereo not drawn) [Compound 93, 3-(5-(1-(7-(2-(6-Chloro-8-fluoro-4-(4-propionylpiperazin-1-yl)quinazolin-7-yl)-3-fluorophenoxy)heptyl)piperidin-4-yl)-6-fluoro-1-oxoisoindolin-2-yl)piperidine-2,6-dione]	B′	B′	< 10%	–
CCC(=O)N1CCN(c2ncnc3c(F)c(-c4c(F)cccc4OCCCCCCCN4CCCC(c5cc(F)cc6c5CN(C5CCC(=O)NC5=O)C6=O)C4)c(Cl)cc23)CC1 (stereo not drawn) [Compound 87, 3-(4-(1-(7-(2-(6-Chloro-8-fluoro-4-(4-propionylpiperazin-1-yl)quinazolin-7-yl)-3-fluorophenoxy)heptyl)piperidin-3-yl)-6-fluoro-1-oxoisoindolin-2-yl)piperidine-2,6-dione]	B′	B′	< 10%	–
CCC(=O)N1CCN(c2ncnc3c(F)c(-c4c(F)cccc4OCCCCCCC(=O)N[C@H](C(=O)N4C[C@H](O)C[C@H]4C(=O)NCc4ccc(-c5scnc5C)cc4)C(C)(C)C)c(Cl)cc23)CC1 [Compound 78, (2S,4R)-1-((2S)-2-(7-(2-(6-Chloro-8-fluoro-4-(4-propionylpiperazin-1-yl)quinazolin-7-yl)-3-fluorophenoxy)heptanamido)-3,3-dimethylbutanoyl)-4-hydroxy-N-(4-(4-methylthiazol-5-yl)benzyl)pyrrolidine-2-carboxamide]	B′	C′	< 10%	–

Second part, led by results:

Inhibition of H358 cells, IC50 (class) [3]	SMILES	Inhibition of H23 cells, IC50 (class) [1]	viability at 10 µM [2]	Effect on MOLM-13 cell viability (% DMSO) [2]
B′	C=C(Cl)C(=O)N1C[C@@H]2C(=O)N(CCCCCCCN3CCC(c4cc(F)cc5c4CN(C4CCC(=O)NC4=O)C5=O)CC3)c3cnc4c(F)c(-c5c(O)cccc5F)c(Cl)cc4c3N2C[C@H]1C (stereo partly drawn) [Compound 125, 3-(4-(1-(7-((2R,4aR)-11-Chloro-3-(2-chloroacryloyl)-9-fluoro-10-(2-fluoro-6-hydroxyphenyl)-2-methyl-5-oxo-1,2,3,4,4a,5-hexahydro-6H-pyrazino[1′,2′:4,5]pyrazino[2,3-c]quinolin-6-yl)heptyl)piperidin-4-yl)-6-fluoro-1-oxoisoindolin-2-yl)piperidine-2,6-dione]	B′	< 10%	–
A′	C=CC(=O)N1CCN(c2nc(=O)n(-c3c(C)ccnc3C(C)C)c3nc(-c4c(F)cccc4OCCCCCCCN4CCC(c5cc(F)cc6c5CN(C5CCC(=O)NC5=O)C6=O)CC4)c(F)cc23)[C@@H](C)C1 (stereo partly drawn) [Compound 124, 3-(4-(1-(7-(2-(4-((S)-4-Acryloyl-2-methylpiperazin-1-yl)-6-fluoro-1-(2-isopropyl-4-methylpyridin-3-yl)-2-oxo-1,2-dihydropyrido[2,3-d]pyrimidin-7-yl)-3-fluorophenoxy)heptyl)-piperidin-4-yl)-6-fluoro-1-oxoisoindolin-2-yl)piperidine-2,6-dione]	B′	< 10%	–
A′	C=C(Cl)C(=O)N1CCN(c2nc(=O)n(-c3c(C)ccnc3C(C)C)c3nc(-c4c(F)cccc4OCCCCCCCN4CCC(c5cc(F)cc6c5CN(C5CCC(=O)NC5=O)C6=O)CC4)c(F)cc23)[C@@H](C)C1 (stereo partly drawn) [Compound 122, 3-(4-(1-(7-(2-(4-((S)-4-(2-Chloroacryloyl)-2-methylpiperazin-1-yl)-6-fluoro-1-(2-isopropyl-4-methylpyridin-3-yl)-2-oxo-1,2-dihydropyrido[2,3-d]pyrimidin-7-yl)-3-fluorophenoxy)heptyl)piperidin-4-yl)-6-fluoro-1-oxoisoindolin-2-yl)piperidine-2,6-dione]	A′	< 10%	–
A′	C=C(Cl)C(=O)N1CCN(c2ncnc3c(F)c(-c4c(F)cccc4OCCC4CCC(CCN5CCC(c6cc(F)cc7c6CN(C6CCC(=O)NC6=O)C7=O)CC5)CC4)c(Cl)cc23)CC1 (stereo not drawn) [Compound 116, 3-(4-(1-(2-(4-(2-(2-(6-Chloro-4-(4-(2-chloroacryloyl)piperazin-1-yl)-8-fluoroquinazolin-7-yl)-3-fluorophenoxy)ethyl)cyclohexyl)ethyl)piperidin-4-yl)-6-fluoro-1-oxoisoindolin-2-yl)piperidine-2,6-dione]	A′	–	A (“A” represents a % viability value of less than 10%)

From US12630547B2, “RAS protein degraders, pharmaceutical compositions thereof, and their therapeutic applications” (BioTheryX, Inc., priority 2019, dated 2026)
